Some results are limits rather than exact numbers.

Usually melting point stands for the temperature of the solid-liquid transition.

On to `O=C1CCC(N2Cc3c(CNC(=O)c4ccccc4)cccc3C2=O)C(=O)N1` (configuration not stated), for which the melting point lay in the range of 228 to 230 °C. For `CC(=O)SC/C(=C/c1ccccc1)C(=O)O` the value was 57 °C. Regarding `CC1CCN(c2nccc(Oc3ccc(NC(=O)c4cc(F)cc(N5CCOCC5)c4)c4ccccc34)n2)CC1`, the melting point lay within 117 to 118 °C. With `CCCCCCc1nc(C(C)=O)c[nH]1`, the melting point was in the range of 104 to 106 °C. In turn, `O=c1[nH]c2cccnc2n1-c1ccncc1` displayed a melting point of 265 to 267 °C. As to `NCc1ccccc1C1CCN(c2cc3c(cc2F)c(=O)c(C(=O)O)cn3C2CC2)C1` (configuration not stated), the melting point was 245 to 247 °C.

Molecule `Cc1cccc(-c2ccc3ccc(N)nc3n2)c1` showed a melting point of 180 °C. `CCCCCCCCCC(=O)Nc1ccc2c(c1)C(=O)N(CCN1CCC(c3noc4cc(F)ccc34)CC1)C2=O`: the melting point fell in the range of 159 to 160 °C. As for `N#Cc1cc(-c2cccnc2)nn1-c1ccc(NCC2Cc3ccccc3C2)cc1`, the melting point lay within 156 to 158 °C.

The molecule `Cc1c(CC(=O)O)c2cc(C(=O)C(C)C)cc3c2n1CCC3` gave a melting point of 162 °C.

`O=C(Nc1ccc(C(F)(F)F)cc1)Nc1ccc(C(=O)N2CCOCC2)s1` had a melting point of 250 to 253 °C. `N=c1sc2cc(OC(F)(F)F)ccc2n1CCS(=O)c1ccncc1` (configuration not stated) showed a melting point of 194 °C. The molecule `COc1cc2c(cc1OCc1ccccc1)CCN(C(=O)c1cc(OC)c(OC)c(OC)c1)C2` returned a melting point of 63 to 64 °C. For `COC1(c2cc(F)cc(Sc3ccc(/C(C)=N/O)c(OCc4ccccc4)c3)c2)CCOCC1` the value was 130 to 131 °C; for `Cc1nc(-c2ccc(OCC(C)(C)C)c(I)c2)sc1C(=O)O`, 194 to 195 °C; for `CCCc1nn(-c2ccc(C(F)(F)F)cn2)cc1CCCOc1c(CC(=O)O)cccc1OCC`, 133 to 134 °C. `CCOC(=O)c1ccc2c(c1)OC(c1cc(Cl)cc(Cl)c1)(c1cc(Cl)cc(Cl)c1)O2` displayed a melting point of 89 °C. For the molecule `FC(F)(F)c1ccc(-c2nccc(Oc3cccc(C(F)(F)F)c3)n2)cc1`, the melting point lay in the range of 66 to 67 °C. `Nc1ncccc1OCc1c(F)cccc1Cl` returned a melting point of 123 to 130 °C. `COC(=O)c1c(C(C)C)nc(C(C)C)c(CN2CCC(N3CCCCC3)CC2)c1-c1ccc(F)cc1` registered a melting point of 59 to 61 °C. On to `Nn1ccc(C(=O)c2ccccc2)c1`, for which the melting point lay in the range of 82 to 83 °C. Consider `c1ccc(-c2ccc(CCOc3ncnc4ccccc34)cc2)cc1`, for which the melting point was in the range of 72 to 74 °C. `O=[N+]([O-])c1cccc(/C=C/c2nc(C3CCC3)cs2)c1` came in with a melting point of 78 to 80 °C. `O=c1ccn(C2CC(O)C(CNC(c3ccccc3)(c3ccccc3)c3ccccc3Cl)O2)c(=O)[nH]1` (configuration not stated) returned a melting point of 129 to 131 °C. The same measure for `CC(C)(C)NCC(=O)c1cccc2cc(O)c(O)cc12`: 140 to 144 °C. For `Cc1oc(-c2ccco2)nc1COc1ccc(COc2nn(Cc3ccccc3)cc2CO)cn1` the value was 94 to 95 °C; for `CC(O)=C1SC(=S)N(c2ccc(Cl)cc2)C1=O`, 200 to 205 °C; for `COc1cc2c(cc1OC)C(C)=[N+]([O-])C(c1ccccc1)N2` (configuration not stated), 178 to 182 °C. `COCC1OC(n2cnc3c(N)nc(F)nc32)C(O)C1O` (configuration not stated) registered a melting point of 231 to 233 °C. `COc1ccc2c(c1)/C(=C/C#N)C(c1ccccc1)C2` (configuration not stated): the melting point fell in the range of 112 to 114 °C. For `CCCc1ccccc1Sc1c(C)n(CC(=O)O)c2ccc(NS(C)(=O)=O)cc12` the value was 160 °C; for `ON=C(CCC1CCN(Cc2ccccc2)CC1)c1ccc(N2CCCC2)cc1`, 153 to 158 °C. Molecule `C=Cc1cc(O)cc2nc(-c3ccc(O)c(F)c3)oc12` gave a melting point of 249 to 251 °C. Consider `CCOc1cc2c3c(c4cc(OCC)c(OCC)cc4c2cc1OCC)C(=O)C=CC3=O`, for which the melting point lay in the range of 188 to 190 °C. Molecule `COc1cc(C(=O)CCCN2CCC(OC(=O)c3cc(Cl)c(N)c4c3OCC4)C(OC)C2)cc(OC)c1OC` (configuration not stated) yielded a melting point of 132 °C. `CCOC(=O)C1=C(C)NC(=O)N(C(=O)OC(C)C)C1c1cccc([N+](=O)[O-])c1` (configuration not stated) yielded a melting point of 128 to 129 °C. In the case of `Nc1ccccc1SCc1ncon1`, the melting point was 57 °C. For the molecule `O=C1COC2(CCN(CCC3COc4ccccc4O3)CC2)CN1` (configuration not stated), the melting point lay within 139 to 140 °C. Molecule `O=C(CCN1CCOCC1)NCc1ccc2c(c1)-c1[nH]nc(-c3ccsc3)c1C2` returned a melting point of 228 to 230 °C. The same measure for `Cc1cc(Br)c(C)cc1N`: 92 to 93 °C; for `Cn1cc(-c2ccccc2)c(=O)c(-c2cccc(Br)c2)c1`: 172 °C. In turn, `CN1[C@@H](c2cccc(Br)c2)c2ccccc2S1(=O)=O` registered a melting point of 157 °C. For `CC(C)c1cc(CCC(=O)O)cc(C(C)C)c1O`, the melting point was 106 °C. The same measure for `Cc1ccc(/C=C/C(=O)N[C@@H]2N=C(c3ccccc3)c3ccccc3N(C)C2=O)cc1`: 133 to 135 °C; for `CC(=O)Nc1ccc2c3c(cccc13)S(=O)(=O)C(C)N2` (configuration not stated): 189 to 190 °C. For the molecule `C=CCNC(=O)N(O)Cc1c(C)n(C(=O)c2ccc(Cl)cc2)c2ccc(OC)cc12`, the melting point was in the range of 148 to 149 °C. The molecule `N#CCCNc1nonc1-c1nc2ccccc2n1CC(=O)c1ccc(Cl)cc1` yielded a melting point of 191 to 192 °C. The molecule `CN1CCC[C@H]1c1cnc(Cl)cc1C(O)(c1ccc(C(C)(C)C)cc1)c1ccc(C(C)(C)C)cc1` displayed a melting point of 226 to 230 °C. `NC(=O)c1cc(-n2cccn2)ccc1N` yielded a melting point of 147 to 149 °C.

Molecule `O=C(O)Cc1c(C(=O)c2ccc(Cl)cc2)[nH]c2cc(C(F)(F)F)ccc12` gave a melting point of 155 to 160 °C. For the molecule `CCCCOc1ccc(S(=O)(=O)NC(=NO)Nc2ccc(Cl)cc2)cc1`, the melting point is 175 to 176 °C. `CCOC(=O)C1=C(COCc2nnn[nH]2)NC(C)=C(C(=O)OC)C1c1cccc(Cl)c1Cl` (configuration not stated) yielded a melting point of 112 to 114 °C.

In turn, `CCOC(=O)c1c(NC23CC4CC(CC(C4)C2)C3)n[nH]c1C` had a melting point of 190 to 203 °C. Molecule `COC(=O)C1=C(C)NC(C)=C(C(=O)OCCN2CCN(C(c3ccc(F)cc3)c3ccc(F)cc3)CC2)C1c1cccc(Cl)c1Cl` (configuration not stated) registered a melting point of 90 to 93 °C. The same measure for `CCOC(=O)c1cc(S(=O)(=O)N2c3ccccc3-c3ccccc3C2C)ccc1OCC` (configuration not stated): 113 to 115 °C. As to `C=CCN(C)C1(C#N)CCC2(CC1)OCCO2`, the melting point fell in the range of 47 to 50 °C. Turning to `Cc1ccc(N)c(C(=O)Nc2cccnc2Cl)c1`, the melting point lay in the range of 187 to 190 °C. With `CC(C)OC(=O)NC(=O)C(c1ccccc1)c1ccccc1`, the melting point was in the range of 122 to 124 °C. `CCOC(=O)CCCCCCCn1c(=O)[nH]c2ccccc2c1=O` returned a melting point of 88 to 89 °C. For `NS(=O)(=O)c1ccc(-c2cccc(-c3nc(-c4ccc(F)cc4)cc(C(F)(F)F)n3)c2)s1`, the melting point came to 228 °C. Molecule `N#Cc1c(N2CCc3ccccc3CC2)nc2n(c1=O)CCN2` had a melting point of over 200 °C. `CN1CCN(C(=O)OC2c3ccc(C(F)(F)F)cc3C(=O)N2c2ccc3ccc(Cl)nc3n2)CC1` (configuration not stated) returned a melting point of 219 °C.

These data come from a melting point compilation (Tetko et al.; mined from patent text by program, amines drawn as free bases though some values may be those of a salt).
